Patent publication US7022667B2, “O-derivatized nocathiacin derivatives” (Bristol-Myers Squibb Company, priority 2002, dated 2006)
Converted amounts (≈) assume the structure as drawn.

Columns and labels:
Assay in all cases: MIC, broth micro dilution assay (NCCLS)
Format in all cases: cell-based
[1] = test system: Streptococcus pneumoniae A28272; details: 50% Mueller-Hinton medium and 50% Todd Hewitt medium, 35° C., 18 hours
Protocol: (§1) The serial broth dilution method used Mueller-Hinton medium except for the Streptococcus pneumoniae which was tested in 50% Mueller-Hinton medium and 50% Todd Hewitt medium. The final bacterial inoculate contained approximately 5×10^5 cfu/well and was run on microtiter plates. The volume of each well was 100 μL and the plates were incubated at 35° C. for 18 hours in ambient air. The MIC was defined as the lowest drug concentration that prevented visible growth.

[2] = test system: Enterococcus faecalis A20688; details: Mueller-Hinton medium, 35° C., 18 hours
Protocol: as §1

[3] = test system: Staphylococcus aureus A15090; details: Mueller-Hinton medium, 35° C., 18 hours
Protocol: as §1

Row | SMILES | MIC (μg/mL) Streptococcus pneumoniae A28272 [1] [µg/mL] | MIC (μg/mL) Enterococcus faecalis A20688 [2] [µg/mL] | MIC (μg/mL) Staphylococcus aureus A15090 [3] [µg/mL]
1 | C=C(NC(=O)c1csc(-c2nc3c(cc2OCC(=O)NCC#N)-c2nc(cs2)C(=O)NC(C(C)O)C(=O)NC(=C(C)OC)c2nc(cs2)C(=O)NC2c4nc(cs4)C(=O)NC(COC(=O)c4c5c6c(cccc6n4OCC(=O)NCC#N)COC(=O)C(OC4CC(C)(O)C(N(C)C)C(C)O4)C2OC5)c2nc-3cs2)n1)C(N)=O (stereo not drawn) [Example 70] | 0.06 (≈ 0.0368 µM) | 0.5 (≈ 0.307 µM) | 4.0 (≈ 2.45 µM)
2 | C=C(NC(=O)c1csc(-c2nc3c(cc2OCC(N)=O)-c2nc(cs2)C(=O)NC(C(C)O)C(=O)NC(=C(C)OC)c2nc(cs2)C(=O)NC2c4nc(cs4)C(=O)NC(COC(=O)c4c5c6c(cccc6n4OCC(N)=O)COC(=O)C(OC4CC(C)(O)C(N(C)C)C(C)O4)C2OC5)c2nc-3cs2)n1)C(N)=O (stereo not drawn) [Example 9] | 0.125 (≈ 0.0806 µM) | 4.0 (≈ 2.58 µM) | 2.0 (≈ 1.29 µM)
3 | C=C(NC(=O)c1csc(-c2nc3c(cc2O)-c2nc(cs2)C(=O)NC(C(C)O)C(=O)NC(=C(C)OC)c2nc(cs2)C(=O)NC2c4nc(cs4)C(=O)NC(COC(=O)c4c5c6c(cccc6n4OCOP(=O)(O)O)COC(=O)C(OC4CC(C)(O)C(N(C)C)C(C)O4)C2OC5)c2nc-3cs2)n1)C(N)=O (stereo not drawn) [Example 12] | 0.015 (≈ 0.00969 µM) | 1.0 (≈ 0.646 µM) | 0.25 (≈ 0.162 µM)
4 | C=C(NC(=O)c1csc(-c2nc3c(cc2O)-c2nc(cs2)C(=O)NC(C(C)O)C(=O)NC(=C(C)OC)c2nc(cs2)C(=O)NC2c4nc(cs4)C(=O)NC(COC(=O)c4c5c6c(cccc6n4OS(=O)(=O)[O-])COC(=O)C(OC4CC(C)(O)C(N(C)C)C(C)O4)C2OC5)c2nc-3cs2)n1)C(N)=O.[Na+] (stereo not drawn) [Example 64] | 0.06 | 0.125 | 1.0
5 | C=C(NC(=O)c1csc(-c2nc3c(cc2OC)-c2nc(cs2)C(=O)NC(C(C)O)C(=O)NC(=C(C)OC)c2nc(cs2)C(=O)NC2c4nc(cs4)C(=O)NC(COC(=O)c4c5c6c(cccc6n4OC)COC(=O)C(OC4CC(C)(O)C(N(C)C)C(C)O4)C2OC5)c2nc-3cs2)n1)C(N)=O (stereo not drawn) [Example 18] | 0.001 (≈ 0.000682 µM) | 0.015 (≈ 0.0102 µM) | 0.007 (≈ 0.00478 µM)
6 | C=C(NC(=O)c1csc(-c2nc3c(cc2OCc2ccccc2)-c2nc(cs2)C(=O)NC(C(C)O)C(=O)NC(=C(C)OC)c2nc(cs2)C(=O)NC2c4nc(cs4)C(=O)NC(COC(=O)c4c5c6c(cccc6n4OCc4ccccc4)COC(=O)C(OC4CC(C)(O)C(N(C)C)C(C)O4)C2OC5)c2nc-3cs2)n1)C(N)=O (stereo not drawn) [Example 66] | 0.001 (≈ 0.000618 µM) | 0.25 (≈ 0.155 µM) | 2.0 (≈ 1.24 µM)
7 | C=C(NC(=O)c1csc(-c2nc3c(cc2O)-c2nc(cs2)C(=O)NC(C(C)O)C(=O)NC(=C(C)OC)c2nc(cs2)C(=O)NC2c4nc(cs4)C(=O)NC(COC(=O)c4c5c6c(cccc6n4OCC4OC6OC(C)(C)OC6C6OC(C)(C)OC46)COC(=O)C(OC4CC(C)(O)C(N(C)C)C(C)O4)C2OC5)c2nc-3cs2)n1)C(N)=O (stereo not drawn) [Example 38] | 0.001 (≈ 0.000595 µM) | 0.03 (≈ 0.0179 µM) | 0.125 (≈ 0.0744 µM)
8 | C=C(NC(=O)c1csc(-c2nc3c(cc2O)-c2nc(cs2)C(=O)NC(C(C)O)C(=O)NC(=C(C)OC)c2nc(cs2)C(=O)NC2c4nc(cs4)C(=O)NC(COC(=O)c4c5c6c(cccc6n4OC(=O)NC)COC(=O)C(OC4CC(C)(O)C(N(C)C)C(C)O4)C2OC5)c2nc-3cs2)n1)C(N)=O (stereo not drawn) [Example 60] | 0.001 (≈ 0.000669 µM) | 0.06 (≈ 0.0401 µM) | 0.125 (≈ 0.0836 µM)
9 | C=C(NC(=O)c1csc(-c2nc3c(cc2OCc2ccccc2)-c2nc(cs2)C(=O)NC(C(C)O)C(=O)NC(=C(C)OC)c2nc(cs2)C(=O)NC2c4nc(cs4)C(=O)NC(COC(=O)c4c5c6c(cccc6n4OCOCC[Si](C)(C)C)COC(=O)C(OC4CC(C)(O)C(N(C)C)C(C)O4)C2OC5)c2nc-3cs2)n1)C(N)=O (stereo not drawn) [Example 79] | 0.015 (≈ 0.00905 µM) | 1.0 (≈ 0.603 µM) | 1.0 (≈ 0.603 µM)
